Data: US8741951B2, “Non-steroidal compounds for androgen receptor modulation” (CNR—Consiglio Nazionale delle Ricerche, priority 2009, dated 2014)
“Also recorded” adds a separate entry of the source.

Tests used:
PC-3 cell line = test: SRB cytotoxicity, PC-3; type: cell-based, human; details: PC-3 (no AR), 144 h, up to 20 μM
Experimental: FIGS. 16-25: cytotoxic effect of compounds (R)-XXIII-2, (R)-XXIII-3, (R)-XXIII-4, (R)-XXIII-5, (R)-XXIII-6, (R)-XXIII-7, (R)-XXIII-8, (R)-XXIII-9, (R)-XXIII-10, (R)-XXIV-9 on PC-3 and DU-145 cell lines at different concentration (0.02, 0.2, 2, 20 μM) after 144 h exposure. On the x-axis is reported the concentration, while on the y-axis is reported the inhibition of the net growth (% net growth).
(§1) Sulforhodamine B (SRB) assay was used according to the method by Skehan et al. (JNCI, 1990). Briefly, cells were collected by trypsinization, counted and plated at a density of 5,000 cells/well in 96-well flat-bottomed microtiter plates (100 μl of cell suspension/well). In the chemosensitivity assay, experiments were run in octuplicate, and each experiment was repeated three times. The optical density (OD) of cells was determined at a wavelength of 490 nm by a colorimetric plate reader.
(§2) If ODtreated is above ODzero, treatment has induced a cytostatic effect, whereas if ODtreated is below ODzero, cell killing has occurred. The ODzero depicts the cell number at the moment of drug addition, the ODcontrol reflects the cell number in untreated wells and the ODtreated reflects the cell number in treated wells on the day of the assay.

[1] = tested on: normal stem cells derived from human peripheral blood stem cells; test: Colony-forming cell assay (GM-CFU); type: cell-based
Experimental: The colony-forming cell assay was used as previously described [Matta M R, Mangianti S, Rizzi S, Ratta M, Campanini E, Fortuna A, et al. Pharmacological purging of minimal residual disease from peripheral blood stem cell collections of acute myloblastic leukaemia patients: preclinical studies. Exp Hematol 1997; 25:1261-1269]. In brief, for each molecule, 5×10^4 cells were plated in duplicate in a complete culture medium (MethoCult H4434, StemCell Technologies, Vancouver, Canada) containing different concentrations (0.2, 2, and 20 μmol/l) of the compound. After 14 days of incubation in a humidified atmosphere of 5% CO2 at the temperature of 37° C., granulocyte macrophage colony-forming unit (GM-CFU) aggregates of more than 50 cells were counted. Control cells were incubated under the same conditions but in drug-free medium.

[2] = tested on: human hepatoblastoma cell line HepG2; test: Cytotoxic activity on HepG2 (hepato-toxicity); type: cell-based; details: HepG2, up to highest concentration tested
Experimental: as §1, §2
FIG. 27-36 show the cytotoxic activity of the drugs on the human hepatoblastoma cell line HepG2. The authors evaluated in vitro the potential hepato-toxicity of some of the novel compounds on HepG2 cell line, a human hepatoblastoma cell line that retains the specialized function of normal hepatocytes [Knowles B B, Howe C C, Aden D P. Human hepatocellular carcinoma cell lines secretes the major plasma proteins and hepatitis B surface antigen. Science 1980, 209:497-499; Aden D P, Vogel A, Plortkin S, Damjanov I, Knowles B B. Controlled synthesis of HBS Ag in a differentiated human liver carcinoma-derived cell line. Nature, 1979, 282:615-616].

[3] = molecular target: T1, human androgen receptor (hAR) (Homo sapiens, UniProt P10275); test: hAR transactivation assay (ARE-luc) in Cos-7 cells; type: cell-based
T1 construct: expressed in transfected cells; host or cells: Cos-7
T1 sequence (P10275 1-920): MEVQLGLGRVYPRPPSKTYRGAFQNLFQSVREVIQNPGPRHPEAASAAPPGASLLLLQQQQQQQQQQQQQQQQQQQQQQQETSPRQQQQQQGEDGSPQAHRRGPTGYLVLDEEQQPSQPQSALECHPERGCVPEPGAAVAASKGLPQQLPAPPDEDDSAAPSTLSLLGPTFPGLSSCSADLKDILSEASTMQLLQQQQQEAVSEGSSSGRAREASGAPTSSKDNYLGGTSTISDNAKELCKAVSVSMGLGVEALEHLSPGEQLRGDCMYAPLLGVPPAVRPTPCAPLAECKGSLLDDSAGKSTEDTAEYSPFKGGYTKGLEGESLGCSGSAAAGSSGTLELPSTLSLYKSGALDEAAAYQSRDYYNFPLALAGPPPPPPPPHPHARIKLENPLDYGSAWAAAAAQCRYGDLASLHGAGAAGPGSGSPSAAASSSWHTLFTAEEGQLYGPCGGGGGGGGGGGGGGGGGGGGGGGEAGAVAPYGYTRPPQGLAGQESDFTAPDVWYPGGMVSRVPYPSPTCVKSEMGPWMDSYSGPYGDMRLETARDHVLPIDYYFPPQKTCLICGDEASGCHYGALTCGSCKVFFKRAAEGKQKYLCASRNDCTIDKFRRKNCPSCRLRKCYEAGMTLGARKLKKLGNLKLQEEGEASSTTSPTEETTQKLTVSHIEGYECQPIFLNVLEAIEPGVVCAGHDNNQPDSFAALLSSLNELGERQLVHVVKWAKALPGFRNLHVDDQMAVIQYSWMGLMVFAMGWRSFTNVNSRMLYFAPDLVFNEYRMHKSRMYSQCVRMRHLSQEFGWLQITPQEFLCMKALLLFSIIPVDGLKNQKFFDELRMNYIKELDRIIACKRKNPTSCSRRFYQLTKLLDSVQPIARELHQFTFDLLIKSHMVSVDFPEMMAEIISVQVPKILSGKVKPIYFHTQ
Description: The cDNA coding hAR was cloned into the pSG5 expression vector as reported previously [Chang, C. S., J. Kokontis, and S. T. Liao 1988 Molecular cloning of human and rat complementary DNA encoding androgen receptors Science 240:324-326].
The 3416 construct (ARE-Luc), containing four copies of the wild-type slp-HRE2 (5′-TGGTCAgccAGTTCT-3′) was cloned in the NheI site in pTK-TATA-Luc [Verrijdt, G., E. Schoenmakers, A. Haelens, B. Peeters, G. Verhoeven, W. Rombauts, and F. Claessens 2000 Change of specificity mutations in androgen selective enhancers J. Biol. Chem. 275:12298-12305].
For androgen-stimulated transcriptional analysis, 32×10^4 Cos-7 cells were plated in phenol red-free DMEM containing 5% charcoal-stripped serum. After 48 h, the cells were transfected by Superfect (Qiagen) with 0.3 μg of 3416-pTK-TATA-Luc construct, together with 1.5 μg of either pSG5-empty plasmid or pSG5-hAR expressing plasmid. […] When indicated, the synthetic compounds were added alone to the cell medium. […] It was dissolved in 0.001% (final concentration) ethanol. Control cells were treated with the vehicle alone. Lysates were prepared and the luciferase activity was measured using a luciferase assay system (Promega). The results were corrected using CH110-expressed beta-galactosidase activity (Amersham Biosciences) and luciferase activity was expressed as fold induction. Results were obtained from two or three different experiments, each performed in duplicate. Mean and SEM are shown.

In the case of `N#Cc1ccc(NC(=O)[C@](O)(Cc2cccs2)CS(=O)(=O)c2ccc(F)cc2)cc1C(F)(F)F` [(R)-XXIII-6], the “cytotoxic activity, in words” value (PC-3 cell line) was “negligible cytotoxic activity”, the “inhibition of clonogenic growth of normal stem cells (mielotoxicity), in words” value ([1]; 0.2, 2, 20 μmol/l, 14 days) was “does not seem to exert significant mielotoxicity; also recorded: weak cytostatic activity” and the GI50 ([1]; hematopoietic precursors, highest concentration tested 20 μmol/l) was “not being able to reach GI50 value”. For the same compound, the “hepato-toxicity, in words” value [2] was “did not display toxicity”, the “inhibition of R1881-induced AR transcriptional activation (antagonistic activity), in words” value ([3]; compound 10 μM with 10 nM R1881) was “antagonistic activity” and the “agonistic activity on AR transcription, in words” value ([3]; compound alone, 10 nM to 1 μM or 10 μM) was “does not seem to display agonistic activity”.
